Measured values: ChEMBL document CHEMBL5634162, “Cyclohexylalanine-Containing α-Helical Amphipathic Peptide Targets Cardiolipin, Rescuing Mitochondrial Dysfunction in Kidney Injury” (J Med Chem, 2024)
Where a SMILES comes first, the peptide text is derived from it. Bridges are numbered along the chain shown (N, C = ends). Roman numbers before positions name the chains, in order. [ ]: non-standard residue; d: D form. The star is where a group is joined. 5TAMRA = CN(C)c1ccc2c(c1)Oc1cc(N(C)C)ccc1C21OC(=O)c2cc(C(=O)*)ccc21; Cha = N[C@@H](CC1CCCCC1)C(=O)O

Test: Drug localization in mitochondria of human HeLa cells at EC50 incubated for 3 hrs by fluorescence based assay
Format: ADME

CC(=O)N[C@@H](CC1CCCCC1)C(=O)N[C@H]1CSSC[C@@H](C(=O)N[C@@H](CCCNC(=N)N)C(N)=O)NC(=O)[C@H](CC(C)C)NC(=O)[C@H](CCCNC(=N)N)NC(=O)[C@H](CCCNC(=N)N)NC(=O)[C@H](CC(C)C)NC(=O)[C@H](CC(C)C)NC(=O)[C@H](CCCNC(=N)N)NC(=O)[C@@H](NC(=O)[C@H](CC2CCCCC2)NC(=O)c2ccc3c(c2)C(=O)OC32c3ccc(N(C)C)cc3Oc3cc(N(C)C)ccc32)CSSC[C@@H](C(=O)N[C@@H](CCCNC(=N)N)C(N)=O)NC(=O)[C@H](CC(C)C)NC(=O)[C@H](CCCNC(=N)N)NC(=O)[C@H](CCCNC(=N)N)NC(=O)[C@H](CC(C)C)NC(=O)[C@H](CC(C)C)NC(=O)[C@H](CCCNC(=N)N)NC1=O (I: Ac-[Cha]CRLLRRLCR-NH2 / II: 5TAMRA-[Cha]CRLLRRLCR-NH2; disulfide I:2-II:9, I:9-II:2)
Drug uptake: 53%

CC(=O)N[C@@H](CC1CCCCC1)C(=O)N[C@H]1CSSC[C@@H](C(=O)N[C@@H](CCCNC(=N)N)C(N)=O)NC(=O)[C@H](CC(C)C)NC(=O)[C@H](CCCNC(=N)N)NC(=O)[C@H](CCCNC(=N)N)NC(=O)[C@H](CC(C)C)NC(=O)[C@H](CC2CCCCC2)NC(=O)[C@H](CCCNC(=N)N)NC(=O)[C@@H](NC(=O)[C@H](CC2CCCCC2)NC(=O)c2ccc3c(c2)C(=O)OC32c3ccc(N(C)C)cc3Oc3cc(N(C)C)ccc32)CSSC[C@@H](C(=O)N[C@@H](CCCNC(=N)N)C(N)=O)NC(=O)[C@H](CC(C)C)NC(=O)[C@H](CCCNC(=N)N)NC(=O)[C@H](CCCNC(=N)N)NC(=O)[C@H](CC(C)C)NC(=O)[C@H](CC2CCCCC2)NC(=O)[C@H](CCCNC(=N)N)NC1=O (I: Ac-[Cha]CR[Cha]LRRLCR-NH2 / II: 5TAMRA-[Cha]CR[Cha]LRRLCR-NH2; disulfide I:2-II:9, I:9-II:2)
Drug uptake: 53%

CC(=O)N[C@@H](CC(C)C)C(=O)N[C@H]1CSSC[C@@H](C(=O)N[C@@H](CCCNC(=N)N)C(N)=O)NC(=O)[C@H](CC(C)C)NC(=O)[C@H](CCCNC(=N)N)NC(=O)[C@H](CCCNC(=N)N)NC(=O)[C@H](CC2CCCCC2)NC(=O)[C@H](CC2CCCCC2)NC(=O)[C@H](CCCNC(=N)N)NC(=O)[C@@H](NC(=O)[C@H](CC(C)C)NC(=O)c2ccc3c(c2)C(=O)OC32c3ccc(N(C)C)cc3Oc3cc(N(C)C)ccc32)CSSC[C@@H](C(=O)N[C@@H](CCCNC(=N)N)C(N)=O)NC(=O)[C@H](CC(C)C)NC(=O)[C@H](CCCNC(=N)N)NC(=O)[C@H](CCCNC(=N)N)NC(=O)[C@H](CC2CCCCC2)NC(=O)[C@H](CC2CCCCC2)NC(=O)[C@H](CCCNC(=N)N)NC1=O (I: Ac-LCR[Cha][Cha]RRLCR-NH2 / II: 5TAMRA-LCR[Cha][Cha]RRLCR-NH2; disulfide I:2-II:9, I:9-II:2)
Drug uptake: 53%

CC(=O)N[C@@H](CC1CCCCC1)C(=O)N[C@H]1CSSC[C@@H](C(=O)N[C@@H](CCCNC(=N)N)C(N)=O)NC(=O)[C@H](CC2CCCCC2)NC(=O)[C@H](CCCNC(=N)N)NC(=O)[C@H](CCCNC(=N)N)NC(=O)[C@H](CC(C)C)NC(=O)[C@H](CC(C)C)NC(=O)[C@H](CCCNC(=N)N)NC(=O)[C@@H](NC(=O)[C@H](CC2CCCCC2)NC(=O)c2ccc3c(c2)C(=O)OC32c3ccc(N(C)C)cc3Oc3cc(N(C)C)ccc32)CSSC[C@@H](C(=O)N[C@@H](CCCNC(=N)N)C(N)=O)NC(=O)[C@H](CC2CCCCC2)NC(=O)[C@H](CCCNC(=N)N)NC(=O)[C@H](CCCNC(=N)N)NC(=O)[C@H](CC(C)C)NC(=O)[C@H](CC(C)C)NC(=O)[C@H](CCCNC(=N)N)NC1=O (I: Ac-[Cha]CRLLRR[Cha]CR-NH2 / II: 5TAMRA-[Cha]CRLLRR[Cha]CR-NH2; disulfide I:2-II:9, I:9-II:2)
Drug uptake: 53%

CC(=O)N[C@@H](CC1CCCCC1)C(=O)N[C@H]1CSSC[C@@H](C(=O)N[C@@H](CCCNC(=N)N)C(N)=O)NC(=O)[C@H](CC(C)C)NC(=O)[C@H](CCCNC(=N)N)NC(=O)[C@H](CCCNC(=N)N)NC(=O)[C@H](CC2CCCCC2)NC(=O)[C@H](CC2CCCCC2)NC(=O)[C@H](CCCNC(=N)N)NC(=O)[C@@H](NC(=O)[C@H](CC2CCCCC2)NC(=O)c2ccc3c(c2)C(=O)OC32c3ccc(N(C)C)cc3Oc3cc(N(C)C)ccc32)CSSC[C@@H](C(=O)N[C@@H](CCCNC(=N)N)C(N)=O)NC(=O)[C@H](CC(C)C)NC(=O)[C@H](CCCNC(=N)N)NC(=O)[C@H](CCCNC(=N)N)NC(=O)[C@H](CC2CCCCC2)NC(=O)[C@H](CC2CCCCC2)NC(=O)[C@H](CCCNC(=N)N)NC1=O (I: Ac-[Cha]CR[Cha][Cha]RRLCR-NH2 / II: 5TAMRA-[Cha]CR[Cha][Cha]RRLCR-NH2; disulfide I:2-II:9, I:9-II:2)
Drug uptake: 53%

CC(=O)N[C@@H](CC(C)C)C(=O)N[C@H]1CSSC[C@@H](C(=O)N[C@@H](CCCNC(=N)N)C(N)=O)NC(=O)[C@H](CC(C)C)NC(=O)[C@H](CCCNC(=N)N)NC(=O)[C@H](CCCNC(=N)N)NC(=O)[C@H](CC(C)C)NC(=O)[C@H](CC2CCCCC2)NC(=O)[C@H](CCCNC(=N)N)NC(=O)[C@@H](NC(=O)[C@H](CC(C)C)NC(=O)c2ccc3c(c2)C(=O)OC32c3ccc(N(C)C)cc3Oc3cc(N(C)C)ccc32)CSSC[C@@H](C(=O)N[C@@H](CCCNC(=N)N)C(N)=O)NC(=O)[C@H](CC(C)C)NC(=O)[C@H](CCCNC(=N)N)NC(=O)[C@H](CCCNC(=N)N)NC(=O)[C@H](CC(C)C)NC(=O)[C@H](CC2CCCCC2)NC(=O)[C@H](CCCNC(=N)N)NC1=O (I: Ac-LCR[Cha]LRRLCR-NH2 / II: 5TAMRA-LCR[Cha]LRRLCR-NH2; disulfide I:2-II:9, I:9-II:2)
Drug uptake: 53%

CC(=O)N[C@@H](CC1CCCCC1)C(=O)N[C@H]1CSSC[C@@H](C(=O)N[C@@H](CCCNC(=N)N)C(N)=O)NC(=O)[C@H](CC2CCCCC2)NC(=O)[C@H](CCCNC(=N)N)NC(=O)[C@H](CCCNC(=N)N)NC(=O)[C@H](CC(C)C)NC(=O)[C@H](CC2CCCCC2)NC(=O)[C@H](CCCNC(=N)N)NC(=O)[C@@H](NC(=O)[C@H](CC2CCCCC2)NC(=O)c2ccc3c(c2)C(=O)OC32c3ccc(N(C)C)cc3Oc3cc(N(C)C)ccc32)CSSC[C@@H](C(=O)N[C@@H](CCCNC(=N)N)C(N)=O)NC(=O)[C@H](CC2CCCCC2)NC(=O)[C@H](CCCNC(=N)N)NC(=O)[C@H](CCCNC(=N)N)NC(=O)[C@H](CC(C)C)NC(=O)[C@H](CC2CCCCC2)NC(=O)[C@H](CCCNC(=N)N)NC1=O (I: Ac-[Cha]CR[Cha]LRR[Cha]CR-NH2 / II: 5TAMRA-[Cha]CR[Cha]LRR[Cha]CR-NH2; disulfide I:2-II:9, I:9-II:2)
Drug uptake: 53%

CC(=O)N[C@@H](CC(C)C)C(=O)N[C@H]1CSSC[C@@H](C(=O)N[C@@H](CCCNC(=N)N)C(N)=O)NC(=O)[C@H](CC2CCCCC2)NC(=O)[C@H](CCCNC(=N)N)NC(=O)[C@H](CCCNC(=N)N)NC(=O)[C@H](CC(C)C)NC(=O)[C@H](CC(C)C)NC(=O)[C@H](CCCNC(=N)N)NC(=O)[C@@H](NC(=O)[C@H](CC(C)C)NC(=O)c2ccc3c(c2)C(=O)OC32c3ccc(N(C)C)cc3Oc3cc(N(C)C)ccc32)CSSC[C@@H](C(=O)N[C@@H](CCCNC(=N)N)C(N)=O)NC(=O)[C@H](CC2CCCCC2)NC(=O)[C@H](CCCNC(=N)N)NC(=O)[C@H](CCCNC(=N)N)NC(=O)[C@H](CC(C)C)NC(=O)[C@H](CC(C)C)NC(=O)[C@H](CCCNC(=N)N)NC1=O (I: Ac-LCRLLRR[Cha]CR-NH2 / II: 5TAMRA-LCRLLRR[Cha]CR-NH2; disulfide I:2-II:9, I:9-II:2)
Drug uptake: 53%
